Test: Photocuring / inverted vial test of aqueous adhesive solution
Type: physicochemical
Details: aqueous solution with LAP 50.9 mM, 395 nm light
Experimental: The minimum concentration of the monomer and the crosslinker that leads to a solid material after curing is 892.8 mM and 161.8 mM, respectively. The high hydrophilicity of both compounds allows the formation of a highly concentrated aqueous solution. After the photoinitiator (LAP) addition and the application of 395 nm wavelength light, radicals are formed, and a polymeric crosslinked network is created according to the reaction (FIG. 9). The solution solidifies after 10 sec of exposure to the UV light (FIGS. 10A-B). FIG. 10A has a vial (892.8 mM KDOPA-MA and 161.8 mM (KDOPA)2-DMA) and FIG. 10B (297.6 mM KDOPA-MA and 53.9 mM (KDOPA)2-DMA). In both cases, the LAP concentration was constant (50.9 mM) and the UV light was applied for 10 sec. When the concentration of the compounds decreases, the solution remains liquid and becomes cloudier after curing. […] FIG. 11A illustrates 15% crosslinker molar ratio. FIG. 11B illustrates 45% crosslinker molar ratio.
The adhesive was prepared using the formulation of Table 1. An aqueous solution of LAP photoinitiator (15 mg/ml), KDOPA-MA (350 mg/ml) and (KDOPA)2-DMA (145 mg/ml) was prepared by mixing and vortexing for 10 sec. Throughout the text this formulation mentioned KDopa glue. When KDOPA-MA was replaced with KY-MA (the (KDOPA)2-DMA crosslinker remains the same) disclosed embodiments have the KY glue. […]

Row | Substance | minimum concentration that leads to a solid material after curing [mM]
1 | Lys-DOPA methacrylate [KDOPA-MA] | 892.8
2 | Lys-DOPA dimethacrylate [(KDOPA)2-DMA] | 161.8
